As usually defined, the Ki is the equilibrium dissociation constant of an inhibitor or competing ligand from its target. What is called IC50 is the midpoint of a concentration-inhibition curve. Low values mean greater potency in that assay, high ones weaker potency in that assay.

Where only a bound is given, the exact number is not on record here.

Assay [1] deals with GABA-A receptor; anion channel. Put plainly: In vitro inhibition of [3H]muscimol to rat brain synaptic membranes. It is filed as cell membranes, Membrane.
Assay [2] concerns the target GABA-A receptor; anion channel. The assay can be described thus: Inhibition of Gamma-aminobutyric acid A (GABA-A) receptor in vitro by whole-cell patch-clamp recording in cultured cerebral cortical neurones. Type of assay: functional, Rattus norvegicus.
For assay [3], the target named is GABA-A receptor; anion channel. Put plainly: Inhibition against Gamma-aminobutyric acid A (GABA-A) receptor. Type of assay: protein-complex assay, Rattus norvegicus.

Consider `Oc1noc(C2CCNCC2)c1CCc1ccc2ccccc2c1`, for which the Ki in assay [1] was 0.49 µM. In other words, the sub-micromolar range.
The same measure, in the same setting: the same measure for `CCc1c(O)noc1C1CCNCC1`: 6.3 µM.
`Oc1noc(C2CCNCC2)c1Cc1ccccc1` showed an inhibition constant Ki in assay [1] of 3.8 µM. This compound also returned an IC50 in assay [2] of 4 µM.
In turn, `Cc1c(O)noc1C1CCNCC1` yielded an inhibition constant Ki in assay [1] of 10 µM. This counts as double-digit micromolar.
The same measure, in the same setting: the same measure for `Oc1noc(C2CCNCC2)c1Cc1ccc2ccccc2c1`: 0.049 µM; for `Oc1noc(C2CCNCC2)c1Cc1c2ccccc2cc2ccccc12`: 5.9 µM.
The compound `Cc1c(O)noc1CN` yielded a half-inhibitory concentration (IC50) in assay [3] above 100 µM.

For the origin of these results see ChEMBL document CHEMBL1133561, “A novel class of potent 3-isoxazolol GABA(A) antagonists: design, synthesis, and pharmacology” (J Med Chem, 2000).
